# Read-outs that look alike come from different tables or passages of the source.
# Columns and labels:
# human FAP-α = human FAP-α (Homo sapiens (Human), UniProt Q12884); experiment: Competitive binding of radiolabeled compound to HT-1080-FAP cells against unlabeled compound; conditions: for IC50-values: Cu-64 labeled; for IC50: read-out: IC50
# Description: Competition experiments were performed by simultaneous exposure to unlabeled (10^−5 M to 10^−9M) and radiolabeled compound for 60 min. […] For internalization experiments, surface bound activity was removed by incubating the cells with 1 M glycine-HCl buffer for 10 min. The radioactivity was measured using a γ-counter, normalized to 1 mio cells and calculated as percentage of applied dose (% ID).
# The medium was replaced by 1 mL fresh medium without fetal calf serum. […] Competition experiments were performed by simultaneous exposure to unlabeled (10^−5 M to 10^−9 M) and radiolabeled compound for 60 min. […] In all experiments, the cells were washed with 1 mL phosphate-buffered saline pH 7.4 for 2 times and subsequently lysed with 1.4 ml lysis buffer (0.3 M NaOH, 0.2% SDS). Radioactivity was determined in a γ-counter (Cobra II, Packard), normalized to 1 mio cells and calculated as percentage of the applied dose (% ID). Each experiment was performed 3 times, and 3 repetitions per independent experiment were acquired.
# [1] = Blood pool clearance from SUVmean of the heart; format: in vivo; conditions: for Plateau value (SUVmean): hypothetical plateau, two phase exponential decay of heart SUVmean; for Blood pool-clearence (T1/2 [min]): rate determining half-life, two phase exponential decay of heart SUVmean 0.375-60 min
# Description: The calculated plateau values, which were higher for Ga-68 labeled FAPI-13, -21, -36 and AlF-18 labeled FAPI-74 theoretically correspond to a higher fraction of compound which is not cleared due to unspecific binding or by remaining in circulating (Table 12).
# [2] = system: HT-1080-FAP tumor xenografts; experiment: Small-animal imaging (PET, scintigraphy) in HT-1080-FAP tumor bearing mice; format: in vivo, mouse; conditions: for tumor uptake in vivo: Tc-99m labeled, scintigraphy
# Description: For in vivo experiments, 8 week old BALB/c nu/nu mice (Charles River) were subcutaneously inoculated into the right trunk with 5×10^6 with HT-1080-FAP, Capan-2 or SK-LMS-1 cells, respectively. When the size of the tumor reached approximately 1 cm^3, the radiolabeled compound was injected via the tail vein (˜10 MBq for small-animal PET imaging; ˜1 MBq for organ distribution). […] Images were reconstructed iteratively using the 3D-OSEM+MAP method and were converted to standardized uptake value (SUV) images. Quantification was done using a ROI technique and expressed as SUV mean. For organ distribution of Lu-177 labeled compound ([…]), the animals (n=3 for each time point) were sacrificed after indicated time points (from 30 min to 24 h). The distributed radioactivity was measured in all dissected organs and in blood using a γ-counter (Cobra Autogamma, Packard). The values are expressed as percentage of injected dose per gram of tissue (% ID/g).
# [3] = system: HT-1080-FAP tumor xenografts; experiment: Organ distribution ex vivo in HT-1080-FAP tumor bearing nude mice; design: species or system mouse; conditions: for Tumor uptake 1 h / Tumor uptake 4 h / Tumor uptake 24 h: HT-1080-FAP tumor bearing nude mice, mean ± SD, n = 3
# Description: For in vivo experiments, 8 week old BALB/c nu/nu mice (Charles River) were subcutaneously inoculated into the right trunk with 5×10^6 with HT-1080-FAP, Capan-2 or SK-LMS-1 cells, respectively. When the size of the tumor reached approximately 1 cm^3, the radiolabeled compound was injected via the tail vein (˜10 MBq for small-animal PET imaging; ˜1 MBq for organ distribution). PET imaging was performed up to 140 min after intravenous injection of 1 MBq of Ga-68 labeled compound per mouse using the Inveon PET small-animal PET scanner (Siemens). Images were reconstructed iteratively using the 3D-OSEM+MAP method and were converted to standardized uptake value (SUV) images. Quantification was done using a ROI technique and expressed as SUV mean. For organ distribution of Lu-177 labeled compound (approx. […] per mouse), the animals (n=3 for each time point) were sacrificed after indicated time points (from 30 min to 24 h). The distributed radioactivity was measured in all dissected organs and in blood using a γ-counter (Cobra Autogamma, Packard). The values are expressed as percentage of injected dose per gram of tissue (% ID/g).
# HT-1080-FAP cells = experiment: Efflux experiments in HT-1080-FAP cells; format: cell-based, human; conditions: Cu-64 labeled
# Description: Radioligand binding studies were performed using HT-1080-FAP cells. The radiolabeled compound was added to the cell culture and incubated for different time intervals ranging from 10 min to 24 h. Competition experiments were performed by simultaneous exposure to unlabeled (10^−5 M to 10^−9M) and radiolabeled compound for 60 min. For efflux experiments, radioactive medium was removed after incubation for 60 min and replaced by non-radioactive medium for time intervals ranging from 1 to 24 h. For internalization experiments, surface bound activity was removed by incubating the cells with 1 M glycine-HCl buffer for 10 min. The radioactivity was measured using a γ-counter, normalized to 1 mio cells and calculated as percentage of applied dose (% ID).
# For radioligand binding studies, cells were seeded in 6-well plates and cultivated for 48 h to a final confluence of approx. 80-90% (1.2-2 mio cells/well). The medium was replaced by 1 mL fresh medium without fetal calf serum. The radiolabeled compound was added to the cell culture and incubated for different time intervals ranging from 10 min to 24 h. Competition experiments were performed by simultaneous exposure to unlabeled (10^−5 M to 10^−9 M) and radiolabeled compound for 60 min. For efflux experiments, radioactive medium was removed after incubation for 60 min and replaced by non-radioactive medium for time intervals ranging from 1 to 24 h. In all experiments, the cells were washed with 1 mL phosphate-buffered saline pH 7.4 for 2 times and subsequently lysed with 1.4 ml lysis buffer (0.3 M NaOH, 0.2% SDS). Radioactivity was determined in a γ-counter (Cobra II, Packard), normalized to 1 mio cells and calculated as percentage of the applied dose (% ID). Each experiment was performed 3 times, and 3 repetitions per independent experiment were acquired.
# [4] = Lu-177-labeled compound, unlabeled compound as competitor, HT-1080-FAP cells
# human FAP-α, sequence (Q12884 whole entry): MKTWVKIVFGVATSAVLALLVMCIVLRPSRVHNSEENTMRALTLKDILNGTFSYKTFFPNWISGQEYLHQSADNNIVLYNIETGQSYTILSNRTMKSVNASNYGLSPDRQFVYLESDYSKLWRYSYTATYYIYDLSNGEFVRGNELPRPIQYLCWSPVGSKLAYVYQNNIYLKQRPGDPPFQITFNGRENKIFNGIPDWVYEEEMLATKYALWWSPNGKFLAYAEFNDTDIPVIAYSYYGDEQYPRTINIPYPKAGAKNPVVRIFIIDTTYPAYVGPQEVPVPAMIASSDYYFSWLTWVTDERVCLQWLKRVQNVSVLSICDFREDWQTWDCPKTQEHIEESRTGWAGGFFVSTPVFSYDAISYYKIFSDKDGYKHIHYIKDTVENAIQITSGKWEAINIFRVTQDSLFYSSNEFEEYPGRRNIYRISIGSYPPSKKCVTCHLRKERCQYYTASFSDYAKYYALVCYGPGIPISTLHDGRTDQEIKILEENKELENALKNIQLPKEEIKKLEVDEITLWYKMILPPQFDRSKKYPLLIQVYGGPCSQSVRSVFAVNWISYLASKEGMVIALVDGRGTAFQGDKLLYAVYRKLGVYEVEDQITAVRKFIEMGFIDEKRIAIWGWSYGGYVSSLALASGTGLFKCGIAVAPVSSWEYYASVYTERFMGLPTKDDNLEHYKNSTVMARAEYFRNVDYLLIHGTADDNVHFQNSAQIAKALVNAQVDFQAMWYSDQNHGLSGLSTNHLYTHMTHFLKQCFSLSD
structure (smiles),measurement,setting,value
CN(CCCN1CCN(C(=O)CN2CCN(CC(=O)O)CCN(CC(=O)O)CC2)CC1)c1ccc2nccc(C(=O)NCC(=O)N3CC(F)(F)C[C@H]3C#N)c2c1 [FAPI-52],IC50-values,human FAP-α; HT-1080-FAP cells,lower nanomolar range
N#C[C@@H]1CCCN1C(=O)CNC(=O)c1ccnc2ccc(OCCCN3CCN(C(=O)CN4CCN(CC(=O)O)CCN(CC(=O)O)CC4)CC3)cc12 [FAPI-74],Plateau value (SUVmean),[1],0.32
same,Blood pool-clearence (T1/2 [min]),[1],2.4 min
same,IC50,"human FAP-α; F-18-FAPI derivatives, table title says EC50, head says IC50",9.2 nM
same,PET imaging findings,"[2]; F-18 labeled (nicotinamide or AlF-18 NOTA), up to 140 min after i.v.",high target specificity and fast clearance
N#C[C@@H]1CC(F)(F)CN1C(=O)CNC(=O)c1ccnc2ccc(OCCCCN3CCN(C(=O)CN4CCN(CC(=O)O)CCN(CC(=O)O)CCN(CC(=O)O)CC4)CC3)cc12 [FAPI-05],IC50,human FAP-α; [4],17.2 nM
same,Tumor uptake 1 h,[3],6.0 ± 0.90 % ID/g
same,Tumor uptake 4 h,[3],5.8 ± 0.60 % ID/g
same,Tumor uptake 24 h,[3],2.8 ± 0.40 % ID/g
N#C[C@@H]1CC(F)(F)CN1C(=O)CNC(=O)c1ccnc2ccc(OCCCN3CCN(CCCN4CCN(CC(=O)O)CCN(CC(=O)O)CCN(CC(=O)O)CC4)CC3)cc12 [FAPI-48],IC50,human FAP-α; [4],26.3 nM
N#C[C@@H]1CC(F)(F)CN1C(=O)CNC(=O)c1ccnc2ccc(OCCCN3CCN(C(=O)CN4CCN(CC(=O)O)CCN(CC(=O)O)CC4)CC3)cc12 [FAPI-42],IC50-values,human FAP-α; HT-1080-FAP cells,lower nanomolar range
same,calculated in vitro-half-life (efflux),HT-1080-FAP cells,720 min
N#C[C@@H]1CC(F)(F)CN1C(=O)CNC(=O)c1ccnc2ccc(OCCCN3CCN(C(=O)CN(Cc4nccn4CC(=O)O)Cc4nccn4CC(=O)O)CC3)cc12 [FAPI-19],IC50,"human FAP-α; Tc-99m labeled, HT-1080-FAP cells",6.4 nM
same,tumor uptake in vivo,[2],insufficient tumor uptake
N#C[C@@H]1CC(F)(F)CN1C(=O)CNC(=O)c1ccnc2ccc(OCCCN3CCN(CCN4CCN(CC(=O)O)CCN(CC(=O)O)CCN(CC(=O)O)CC4)CC3)cc12 [FAPI-47],IC50,human FAP-α; [4],42 nM
N#C[C@@H]1CC(F)(F)CN1C(=O)CNC(=O)c1ccnc2ccc(OCCCN3C[C@@H]4C[C@H]3CN4C(=O)CN3CCN(CC(=O)O)CCN(CC(=O)O)CCN(CC(=O)O)CC3)cc12 [FAPI-20],IC50,human FAP-α; [4],7.2 nM
CN(CCCN1CCN(C(=O)CN2CCN(CC(=O)O)CCN(CC(=O)O)CCN(CC(=O)O)CC2)CC1)c1ccc2nccc(C(=O)NCC(=O)N3CC(F)(F)C[C@H]3C#N)c2c1 [FAPI-46],Plateau value (SUVmean),[1],0.19
same,Blood pool-clearence (T1/2 [min]),[1],5.3 min
same,IC50,human FAP-α; [4],13.5 nM
same,tumor-blood-ratios,"[3]; Lu labeled, 1, 4 and 24 h, compared with FAPI-04",significantly higher ratios than FAPI-04
N#C[C@@H]1CC(F)(F)CN1C(=O)CNC(=O)c1ccnc2ccc(OCCCC3CCN(C(=O)CN4CCN(CC(=O)O)CCN(CC(=O)O)CCN(CC(=O)O)CC4)CC3)cc12 [FAPI-13],Plateau value (SUVmean),[1],0.27
same,Blood pool-clearence (T1/2 [min]),[1],5.5 min
same,IC50,human FAP-α; [4],4.5 nM
same,Tumor uptake 1 h,[3],6.3 ± 0.57 % ID/g
same,Tumor uptake 4 h,[3],8.7 ± 0.77 % ID/g
same,Tumor uptake 24 h,[3],4.8 ± 1.71 % ID/g
N#C[C@@H]1CC(F)(F)CN1C(=O)CNC(=O)c1ccnc2ccc(NCCCN3CCN(C(=O)CN4CCN(CC(=O)O)CCN(CC(=O)O)CCN(CC(=O)O)CC4)CC3)cc12 [FAPI-41],IC50,human FAP-α; [4],8.3 nM
N#C[C@@H]1CC(F)(F)CN1C(=O)CNC(=O)c1ccnc2ccc(OCCCN3CCN(C(=O)CN(Cc4nccn4CC(=O)N[C@@H](CC(C(=O)O)C(=O)O)C(=O)O)Cc4nccn4CC(=O)N[C@@H](CC(C(=O)O)C(=O)O)C(=O)O)CC3)cc12 [FAPI-34],tumor uptake in vivo,[2],continuously enriched within the tumor
N#C[C@@H]1CC(F)(F)CN1C(=O)CNC(=O)c1ccnc2ccc(OCCOCCOCCN3CCN(C(=O)CN4CCN(CC(=O)O)CCN(CC(=O)O)CCN(CC(=O)O)CC4)CC3)cc12 [FAPI-15],IC50,human FAP-α; [4],9.1 nM
same,Tumor uptake 1 h,[3],3.4 ± 1.13 % ID/g
same,Tumor uptake 4 h,[3],4.6 ± 0.32 % ID/g
same,Tumor uptake 24 h,[3],1.1 ± 0.25 % ID/g
N#C[C@@H]1CC(F)(F)CN1C(=O)CNC(=O)c1ccnc2ccc(SCCCN3CCN(C(=O)CN4CCN(CC(=O)O)CCN(CC(=O)O)CCN(CC(=O)O)CC4)CC3)cc12 [FAPI-40],IC50,human FAP-α; [4],12.7 nM
N#C[C@@H]1CC(F)(F)CN1C(=O)CNC(=O)c1ccnc2ccc(CCCCN3CCN(C(=O)CN4CCN(CC(=O)O)CCN(CC(=O)O)CCN(CC(=O)O)CC4)CC3)cc12 [FAPI-39],IC50,human FAP-α; [4],11.3 nM

# Reference: patent US20250127937A1, “FAP INHIBITOR” (UNIVERSITÄT HEIDELBERG, priority 2018, published 2025)
